As a reminder, the EC50 is the concentration giving half of the maximal effect.

Data set [1] deals with mouse hippocampal neuronal cell line HT22. Briefly: Neurotoxicity and excitotoxicity assay, HT22 cells + glutamate, erastin or RSL3, MTS cell viability. It counts as cell-based. The conditions noted are these: for EC50: Mus musculus. Here is the method:
(§1) The excitotoxicity model used was the mouse hippocampal neuronal HT22 cells treated with glutamate [Dixon et al., Cell, 2012, 149(5), 1060-1072]. Ferroptosis and oxidative stress are both associated in this glutamate-induced cell death [Chu et al., Neural Regen. Res., 2020, 15(3), 528-536]. Phenotypic screening was also carried out with additional cell death inducers, erastin and RSL3 ((1S,3R)-Ras-selective lethal), in HT22 and SH-SY5Y (human neuroblastoma cells). Erastin and RSL3 are well described molecules, used as chemical tools for the study of ferroptosis regulation and neuronal pathologies [Lewerenz et al., Front. Neurosci., 2018, 12: 214; Reichert et al., Int. J. Mol. Sci., 2020, 21, 8765].
(§2) Mouse hippocampal neuronal cell line (HT22, ATCC) and human neuroblastoma cell line (SH-SY5Y, ATCC) were grown in Dulbecco's Modified Eagle Medium (DMEM, Gibco) supplemented with 10% fetal bovine serum (FBS, Gibco) at 37° C. under 5% CO2 atmosphere. Neurotoxicity was induced by erastin or RSL3 and excitotoxicity was induced by glutamate. Cells were seeded in 96-well plates at 5,000 and 10,000 cells/well for HT22 and SH-SY5Y cell lines, respectively. Cells were treated with 0.5-1 μM Erastin (HT22 cells) or 10 μM Erastin (SH-SY5Y cells) or 5-10 mM glutamate (HT22 cells) or 0.5 μM RSL3 (HT22 cells) or 5 μM RSL3 (SH-SY5Y cells) for 24 h in presence of increasing concentrations of inhibitors. Cells treated with DMSO only were used as controls. Cell viability was assessed by MTS assay (CellTiter 96 AQueous One Solution Cell Proliferation assay, Promega).
(§3) In FIGS. 1, 2A and 2B, an inhibitor was added to HT22 (FIG. 1: compound 6) or SH-SY5Y (FIG. 2A: compound 6; FIG. 2B: compound 25) cells in the presence or not of cell death inducers (erastin, glutamate or RSL3). […] EC50 values for compounds 1-28 were calculated from dose-response curves using Graphpad Prism software.

Data set [2] concerns human neuroblastoma cell line SH-SY5Y. Put plainly: Neurotoxicity assay, SH-SY5Y cells + erastin or RSL3, MTS cell viability. It counts as cell-based. The settings on record: for EC50: Homo sapiens. On the procedure: as §1, §2, §3
Where [3] appears, read: HT-22, HT22 cells, 0.5 μM RSL3, 24 h, MTS, read-out: EC50 HT22 RSL3.
[4] abbreviates: HT-22, HT22 cells, 0.5-1 μM Erastin, 24 h, MTS, read-out: EC50 HT22 Erastin.
[5] abbreviates: HT-22, HT22 cells, 5-10 mM glutamate, 24 h, MTS, read-out: EC50 HT22 Glutamate.
[6] abbreviates: SH-SY5Y cells, 10 μM Erastin, 24 h, MTS, read-out: EC50 SH-SY5Y Erastin.
The mark [7] stands for this setting: SH-SY5Y cells, 5 μM RSL3, 24 h, MTS, read-out: EC50 SH-SY5Y RSL3.

Read-outs that look alike come from different tables or passages of the source.

Regarding `CCOc1ccc(-c2cc3cccn(Cc4ccc(OC)cc4)c-3n2)cc1` [Compound 27, 2-(4-ethoxyphenyl)-7-(4-methoxybenzyl)-7H-pyrrolo[2,3-b]pyridine], the concentration for a half-maximal effect (EC50) in data set [1] (setting [3]) is 9.93 µM; in data set [1] (setting [4]), 3.9 µM; in data set [1] (setting [5]), 1.5 µM; in data set [2] (setting [6]), 2.46 µM.
Turning to `Oc1ccc(-c2cc3ccc(-c4ccc(O)nc4)nc3[nH]2)cc1` [Compound 40, 5-(2-(4-hydroxyphenyl)-1H-pyrrolo[2,3-b]pyridin-6-yl)pyridin-2-ol], the EC50 came to 4.98 µM in data set [1] (setting [3]), 13.3 µM in data set [1] (setting [4]), 0.95 µM in data set [2] (setting [7]) and 5.06 µM in data set [2] (setting [6]).
As for `CCOc1ccc(-c2cc3c(N4CCN(C)CC4)ccnc3[nH]2)cc1` [Compound 15, 2-(4-ethoxyphenyl)-4-(4-methylpiperazin-1-yl)-1H-pyrrolo[2,3-b]pyridine], the EC50 in data set [1] (setting [3]) came out at 7.19 µM; in data set [1] (setting [4]), 1.54 µM; in data set [1] (setting [5]), 0.5 µM; in data set [2] (setting [6]), 2.45 µM.
As to `CCOc1ccc(-c2cc3ccncc3n2OC(=O)c2ccccc2)cc1` [Compound 6, 2-(4-ethoxyphenyl)-1H-pyrrolo[2,3-c]pyridin-1-yl benzoate], the “effect on cell viability without cell death inducers (potential cytotoxic effect of the molecule alone)” value was “no effect on cell viability” in data set [1] (HT22 cells, 24 h, doses tested maximum 50 or 100 μM) and “no effect on cell viability” in data set [2] (SH-SY5Y cells, 24 h, doses tested maximum 50 or 100 μM). For the same compound, the “concentration reaching almost total inhibition of induced cell death” value turned out to be 10 µM in data set [1] (HT22 cells, in the presence of a ferroptosis inducer) and 1 µM in data set [2] (SH-SY5Y cells, in the presence of a ferroptosis inducer). Moreover, the concentration giving a half-maximal response (EC50) in data set [1] (setting [3]) was found to be 2.31 µM; in data set [1] (setting [4]), 2.05 µM; in data set [1] (setting [5]) it was 1.64 µM; in data set [2] (setting [6]), 0.18 µM.
Turning to `CCOc1ccc(-c2cc3ccncc3[nH]2)cc1` [Compound 4, 2-(4-ethoxyphenyl)-1H-pyrrolo[2,3-c]pyridine], the EC50 in data set [1] (setting [3]) is 27.8 µM; in data set [1] (setting [4]), > 25 µM; in data set [1] (setting [5]), > 25 µM; in data set [2] (setting [7]), 5.42 µM; in data set [2] (setting [6]), 7.66 µM.
Take `CCOc1ccc(-c2cc3ccncc3n2O)cc1` [Compound 5, 2-(4-ethoxyphenyl)-1Hpyrrolo[2,3-c]pyridin-1-ol]: the EC50 in data set [1] (setting [3]) was determined as 2.79 µM; in data set [1] (setting [4]) it was 3.23 µM; in data set [1] (setting [5]), 3.6 µM; in data set [2] (setting [6]) it was 0.52 µM.
For the compound `CC(C)(C)OC(=O)n1c(-c2ccc(O)cc2)cc2ccccc21` [Compound 29, tert-butyl 2-(4-hydroxyphenyl)-1H-indole-1-carboxylate], the EC50 in data set [1] (setting [3]) was found to be 3.96 µM; in data set [1] (setting [4]) it was 8.3 µM; in data set [1] (setting [5]), 5.5 µM; in data set [2] (setting [7]) it was 1.46 µM.
As for `NCC(=O)Oc1ccc(-c2cc3cccnc3[nH]2)cc1` [Compound 8, 4-(1H-pyrrolo[2,3-b]pyridin-2-yl)phenyl glycinate], the half-maximal effective concentration (EC50) in data set [1] (HT-22, 24 h, read-out: EC50 HT22 Erastin) was > 25 µM; in data set [1] (HT-22, 24 h, read-out: EC50 HT22 Glutamate) it was > 25 µM; in data set [1] (HT-22, 24 h, read-out: EC50 HT22 RSL3), > 50 µM; in data set [2] (SH-SY5Y, 24 h, read-out: EC50 SH-SY5Y Erastin), 21.5 µM; in data set [2] (SH-SY5Y, 24 h, read-out: EC50 SH-SY5Y RSL3), 5.98 µM.
Regarding `CCOc1ccc(-c2cc3c(Nc4ccccc4)ccnc3[nH]2)cc1` [Compound 14, 2-(4-ethoxyphenyl)-N-phenyl-1H-pyrrolo[2,3-b]pyridin-4-amine], the EC50 in data set [1] (setting [3]) was found to be 0.76 µM; in data set [1] (setting [4]), 1.52 µM; in data set [1] (setting [5]) it was 0.55 µM; in data set [2] (setting [6]), 1.11 µM.
As for `CCOc1ccc(-c2cc3ccc(OC(C)=O)nc3n2C(C)=O)cc1` [Compound 22, 1-acetyl-2-(4-ethoxyphenyl)-1H-pyrrolo[2,3-b]pyridin-6-yl acetate], the concentration for a half-maximal effect (EC50) in data set [1] (setting [3]) was 9.09 µM; in data set [1] (setting [4]), 5.53 µM; in data set [1] (setting [5]) it was 5.31 µM; in data set [2] (setting [7]), 0.79 µM; in data set [2] (setting [6]), 1.16 µM.
The corresponding values for `CCOc1ccc(-c2cc3ccc[n+]([O-])c3[nH]2)cc1` [Compound 23, 2-(4-ethoxyphenyl)-1H-pyrrolo[2,3-b]pyridine-7-oxide] are 9.93 µM, > 25 µM, > 25 µM, 2.64 µM and 26.3 µM.
`CCOc1ccc(-c2cc3ccc(OC(C)=O)nc3[nH]2)cc1` [Compound 38]: the concentration for a half-maximal effect (EC50) in data set [1] (setting [3]) was 2.56 µM; in data set [1] (setting [4]), 6.78 µM; in data set [2] (setting [7]) it was 0.2 µM; in data set [2] (setting [6]), 1.61 µM.
The corresponding values for `CCOc1ccc(-c2cc3c(Nc4ccccc4)ccnc3n2S(=O)(=O)c2ccccc2)cc1` [Compound 43, 2-(4-ethoxyphenyl)-N-phenyl-1-(phenylsulfonyl)-1H-pyrrolo[2,3-b]pyridin-4-amine] are 2.35 µM, 0.53 µM, 1.35 µM and 1.64 µM.
As for `CCOc1ccc(-c2cc3c(NCc4ccccc4)ccnc3[nH]2)cc1` [Compound 12, N-benzyl-2-(4-ethoxyphenyl)-1H-pyrrolo[2,3-b]pyridin-4-amine], the EC50 in data set [1] (setting [3]) is 0.94 µM; in data set [1] (setting [4]), 0.91 µM; in data set [1] (setting [5]) it was 0.5 µM; in data set [2] (setting [6]), 0.43 µM.
With `CCOc1ccc(-c2cc3cccnc3n2-c2ccc([N+](=O)[O-])cn2)cc1` [Compound 19, 2-(4-ethoxyphenyl)-1-(5-nitropyridin-2-yl)-1H-pyrrolo[2,3-b]pyridine], the EC50 amounted to 22.1 µM in data set [1] (setting [3]); 23.3 µM in data set [1] (setting [4]); 12.8 µM in data set [1] (setting [5]); 5.6 µM in data set [2] (setting [7]); 14.3 µM in data set [2] (setting [6]).
For `CCOc1ccc(-c2cc3cccnc3n2CCN2CCOCC2)cc1` [Compound 20, 4-(2-(2-(4-ethoxyphenyl)-1H-pyrrolo[2,3-b]pyridin-1-yl)ethyl)morpholine] the same measures were 16.7 µM, 5.14 µM, 11.1 µM, 27.4 µM and 21.4 µM.
Consider `CCOc1ccc(-c2cc3cccn(Cc4ccccc4)c-3n2)cc1` [Compound 26, 7-benzyl-2-(4-ethoxyphenyl)-7H-pyrrolo[2,3-b]pyridine], for which the EC50 amounted to 12.7 µM in data set [1] (setting [4]), 0.82 µM in data set [1] (setting [5]), 33.7 µM in data set [2] (setting [7]) and 9.94 µM in data set [2] (setting [6]).
